Here are results for twelve compounds from patent US7964531B2, “3-phenoxy-4-pyridazinol derivatives and herbicidal composition containing the same” (Mitsui Chemicals Agro, Inc., priority 2001, dated 2011).

Holding throughout (type): in vivo
Conditions in all cases: wettable powder applied 3 days after transplanting, judged after 25 days

For data set [1], the system named is Cyperus serotinus. In words: Test Example 1: herbicidal effects, paddy-field pot test. The gist of the method:
(§1)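 Herbicidal effect and crop injury were rated 0 (0-10% inhibition) to 5 (91-100%) 25 days after treatment. Water-diluted wettable powder was applied to flooded greenhouse pots 3 days after transplanting 2.2-leaf rice. The pots held seeded weeds and sprouted Cyperus serotinus tubers.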

The subject of data set [2] is Scirpus joncoides. The data set is described as above. The gist of the method:
as §1

In data set [3] the test system is annual broad-leaved weeds (Lindernia spp., Rotala indica). Described as above. The essentials: as §1
Data set [4] concerns barnyardgrass (Echinochloa oryzicola Vasing.). The data set is described as above. The essentials:
as §1

Data set [5] concerns transplanted paddy-field rice. As to the kind of experiment: Test Example 1: crop injury against transplanted paddy-field rice. The gist of the method:
as §1

Regarding `Oc1cc(Cl)nnc1Oc1cccc2ccccc12` [Example 180], the “Herbicidal effects Cyperus serotinus” value in data set [1] (chemical dosage 12.5 g/a) and in data set [1] (chemical dosage 25 g/a) was 5 (Growth inhibition rate; 91 to 100%) each time. Besides, the “Herbicidal effects Scirpus joncoides” value in data set [2] (chemical dosage 12.5 g/a) is reported as 2 (Growth inhibition rate; 31 to 50%); in data set [2] (chemical dosage 25 g/a), 3 (Growth inhibition rate; 51 to 70%). Also, the “Herbicidal effects Broad leaf” value in data set [3] (chemical dosage 12.5 g/a) and in data set [3] (chemical dosage 25 g/a) was 5 (Growth inhibition rate; 91 to 100%) each time. For the same compound, the “Herbicidal effects Barnyard grass” value in data set [4] (chemical dosage 12.5 g/a) and in data set [4] (chemical dosage 25 g/a) was 0 (Growth inhibition rate; 0 to 10%) in each case. The “Crop injury against transplanted rice” value in data set [5] (chemical dosage 12.5 g/a) and in data set [5] (chemical dosage 25 g/a) was 0 (Growth inhibition rate; 0 to 10%) in each case.

As for `Oc1cc(Cl)nnc1Oc1cccc2c1CCO2` [Example 181], the “Herbicidal effects Cyperus serotinus” value in data set [1] (chemical dosage 10 g/a) was 4 (Growth inhibition rate; 71 to 90%); in data set [1] (chemical dosage 20 g/a), 5 (Growth inhibition rate; 91 to 100%). Also, the “Herbicidal effects Scirpus joncoides” value in data set [2] (chemical dosage 10 g/a) was 3 (Growth inhibition rate; 51 to 70%); in data set [2] (chemical dosage 20 g/a), 4 (Growth inhibition rate; 71 to 90%). Besides, the “Herbicidal effects Broad leaf” value in data set [3] (chemical dosage 10 g/a) and in data set [3] (chemical dosage 20 g/a) was 5 (Growth inhibition rate; 91 to 100%) in each case. In addition, the results for the “Herbicidal effects Barnyard grass” value in data set [4] (chemical dosage 10 g/a) and in data set [4] (chemical dosage 20 g/a) were 1 (Growth inhibition rate; 11 to 30%) and 2 (Growth inhibition rate; 31 to 50%), respectively. Further, the “Crop injury against transplanted rice” value in data set [5] (chemical dosage 10 g/a) and in data set [5] (chemical dosage 20 g/a) was 0 (Growth inhibition rate; 0 to 10%) in each case.

Consider `CC1COc2cccc(Oc3nnc(Cl)cc3O)c21` (stereo not drawn) [Example 182], for which the “Herbicidal effects Cyperus serotinus” value in data set [1] (chemical dosage 20 g/a) was 5 (Growth inhibition rate; 91 to 100%). For the same compound, in data set [2] (chemical dosage 20 g/a), the “Herbicidal effects Scirpus joncoides” value was 4 (Growth inhibition rate; 71 to 90%). Moreover, in data set [3] (chemical dosage 20 g/a), the “Herbicidal effects Broad leaf” value was 5 (Growth inhibition rate; 91 to 100%). Besides, the “Herbicidal effects Barnyard grass” value in data set [4] (chemical dosage 20 g/a) is 2 (Growth inhibition rate; 31 to 50%). For the same compound, the “Crop injury against transplanted rice” value in data set [5] (chemical dosage 20 g/a) is reported as 0 (Growth inhibition rate; 0 to 10%).

Take `Oc1cc(Cl)nnc1Oc1cccc2occc12` [Example 183]: the “Herbicidal effects Cyperus serotinus” value in data set [1] (chemical dosage 10 g/a) and in data set [1] (chemical dosage 20 g/a) was 5 (Growth inhibition rate; 91 to 100%) throughout. Moreover, the “Herbicidal effects Scirpus joncoides” value in data set [2] (chemical dosage 10 g/a) and in data set [2] (chemical dosage 20 g/a) was 5 (Growth inhibition rate; 91 to 100%) each time. Further, the “Herbicidal effects Broad leaf” value in data set [3] (chemical dosage 10 g/a) and in data set [3] (chemical dosage 20 g/a) was 5 (Growth inhibition rate; 91 to 100%) throughout. Also, the results for the “Herbicidal effects Barnyard grass” value in data set [4] (chemical dosage 10 g/a) and in data set [4] (chemical dosage 20 g/a) were 1 (Growth inhibition rate; 11 to 30%) and 2 (Growth inhibition rate; 31 to 50%), respectively. Also, the “Crop injury against transplanted rice” value in data set [5] (chemical dosage 10 g/a) and in data set [5] (chemical dosage 20 g/a) was 0 (Growth inhibition rate; 0 to 10%) throughout.

Consider `Cc1coc2cccc(Oc3nnc(Cl)cc3O)c12` [Example 184], for which the “Herbicidal effects Cyperus serotinus” value in data set [1] (chemical dosage 20 g/a) was 5 (Growth inhibition rate; 91 to 100%). In data set [2] (chemical dosage 20 g/a), the “Herbicidal effects Scirpus joncoides” value was 4 (Growth inhibition rate; 71 to 90%). Moreover, the “Herbicidal effects Broad leaf” value in data set [3] (chemical dosage 20 g/a) is 5 (Growth inhibition rate; 91 to 100%). For the same compound, the “Herbicidal effects Barnyard grass” value in data set [4] (chemical dosage 20 g/a) is reported as 0 (Growth inhibition rate; 0 to 10%). For the same compound, the “Crop injury against transplanted rice” value in data set [5] (chemical dosage 20 g/a) is 0 (Growth inhibition rate; 0 to 10%).

Regarding `Oc1cc(Cl)nnc1Oc1cccc2sccc12` [Example 185], the “Herbicidal effects Cyperus serotinus” value in data set [1] (chemical dosage 5 g/a) was 3 (Growth inhibition rate; 51 to 70%). In data set [2] (chemical dosage 5 g/a), the “Herbicidal effects Scirpus joncoides” value is recorded as 2 (Growth inhibition rate; 31 to 50%). In addition, the “Herbicidal effects Broad leaf” value in data set [3] (chemical dosage 5 g/a) is on record as 3 (Growth inhibition rate; 51 to 70%). Further, in data set [4] (chemical dosage 5 g/a), the “Herbicidal effects Barnyard grass” value was 1 (Growth inhibition rate; 11 to 30%). Also, the “Crop injury against transplanted rice” value in data set [5] (chemical dosage 5 g/a) is 0 (Growth inhibition rate; 0 to 10%).

As for `Oc1cc(Cl)nnc1Oc1cccc2c1OCC2` [Example 189], the “Herbicidal effects Cyperus serotinus” value in data set [1] (chemical dosage 5 g/a) and in data set [1] (chemical dosage 10 g/a) was 5 (Growth inhibition rate; 91 to 100%) throughout. Also, the “Herbicidal effects Scirpus joncoides” value in data set [2] (chemical dosage 5 g/a) is 4 (Growth inhibition rate; 71 to 90%); in data set [2] (chemical dosage 10 g/a), 5 (Growth inhibition rate; 91 to 100%). Moreover, the “Herbicidal effects Broad leaf” value in data set [3] (chemical dosage 5 g/a) and in data set [3] (chemical dosage 10 g/a) was 5 (Growth inhibition rate; 91 to 100%) in each case. The “Herbicidal effects Barnyard grass” value is given as 2 (Growth inhibition rate; 31 to 50%) in data set [4] (chemical dosage 5 g/a) and 3 (Growth inhibition rate; 51 to 70%) in data set [4] (chemical dosage 10 g/a). Further, the entries for the “Crop injury against transplanted rice” value in data set [5] (chemical dosage 5 g/a) and in data set [5] (chemical dosage 10 g/a) were 0 (Growth inhibition rate; 0 to 10%) and 3 (Growth inhibition rate; 51 to 70%), respectively.

As to `Oc1cc(Cl)nnc1Oc1cccc2c1OCO2` [Example 192], the “Herbicidal effects Cyperus serotinus” value in data set [1] (chemical dosage 10 g/a) and in data set [1] (chemical dosage 20 g/a) was 5 (Growth inhibition rate; 91 to 100%) throughout. The “Herbicidal effects Scirpus joncoides” value in data set [2] (chemical dosage 10 g/a) and in data set [2] (chemical dosage 20 g/a) was 5 (Growth inhibition rate; 91 to 100%) throughout. The “Herbicidal effects Broad leaf” value is 2 (Growth inhibition rate; 31 to 50%) in data set [3] (chemical dosage 10 g/a) and 3 (Growth inhibition rate; 51 to 70%) in data set [3] (chemical dosage 20 g/a). For the same compound, the “Herbicidal effects Barnyard grass” value in data set [4] (chemical dosage 10 g/a) is 2 (Growth inhibition rate; 31 to 50%); in data set [4] (chemical dosage 20 g/a), 5 (Growth inhibition rate; 91 to 100%). For the same compound, the “Crop injury against transplanted rice” value is recorded as 0 (Growth inhibition rate; 0 to 10%) in data set [5] (chemical dosage 10 g/a) and 1 (Growth inhibition rate; 11 to 30%) in data set [5] (chemical dosage 20 g/a).

Turning to `Cc1ccc(Cl)c(Oc2nnc(Cl)cc2O)c1` [Example 203], the “Herbicidal effects Cyperus serotinus” value in data set [1] (chemical dosage 12.5 g/a) and in data set [1] (chemical dosage 25 g/a) was 5 (Growth inhibition rate; 91 to 100%) each time. Moreover, the “Herbicidal effects Scirpus joncoides” value in data set [2] (chemical dosage 12.5 g/a) and in data set [2] (chemical dosage 25 g/a) was 5 (Growth inhibition rate; 91 to 100%) in each case. Besides, the “Herbicidal effects Broad leaf” value in data set [3] (chemical dosage 12.5 g/a) and in data set [3] (chemical dosage 25 g/a) was 5 (Growth inhibition rate; 91 to 100%) in each case. Also, the “Herbicidal effects Barnyard grass” value in data set [4] (chemical dosage 12.5 g/a) was 1 (Growth inhibition rate; 11 to 30%); in data set [4] (chemical dosage 25 g/a), 2 (Growth inhibition rate; 31 to 50%). Also, the “Crop injury against transplanted rice” value in data set [5] (chemical dosage 12.5 g/a) and in data set [5] (chemical dosage 25 g/a) was 0 (Growth inhibition rate; 0 to 10%) in each case.

`Cc1ccc(Cl)cc1Oc1nnc(Cl)cc1O` [Example 204]: the “Herbicidal effects Cyperus serotinus” value in data set [1] (chemical dosage 12.5 g/a) and in data set [1] (chemical dosage 25 g/a) was 5 (Growth inhibition rate; 91 to 100%) throughout. Also, the “Herbicidal effects Scirpus joncoides” value in data set [2] (chemical dosage 12.5 g/a) and in data set [2] (chemical dosage 25 g/a) was 5 (Growth inhibition rate; 91 to 100%) in each case. In addition, the “Herbicidal effects Broad leaf” value in data set [3] (chemical dosage 12.5 g/a) and in data set [3] (chemical dosage 25 g/a) was 5 (Growth inhibition rate; 91 to 100%) throughout. Moreover, the “Herbicidal effects Barnyard grass” value in data set [4] (chemical dosage 12.5 g/a) and in data set [4] (chemical dosage 25 g/a) was 2 (Growth inhibition rate; 31 to 50%) in each case. Moreover, the “Crop injury against transplanted rice” value in data set [5] (chemical dosage 12.5 g/a) and in data set [5] (chemical dosage 25 g/a) was 0 (Growth inhibition rate; 0 to 10%) each time.

Turning to `Cc1ccc(C)c(Oc2nnc(Cl)cc2O)c1` [Example 205], the “Herbicidal effects Cyperus serotinus” value in data set [1] (chemical dosage 12.5 g/a) and in data set [1] (chemical dosage 25 g/a) was 5 (Growth inhibition rate; 91 to 100%) throughout. For the same compound, the “Herbicidal effects Scirpus joncoides” value in data set [2] (chemical dosage 12.5 g/a) and in data set [2] (chemical dosage 25 g/a) was 5 (Growth inhibition rate; 91 to 100%) throughout. Moreover, the “Herbicidal effects Broad leaf” value in data set [3] (chemical dosage 12.5 g/a) and in data set [3] (chemical dosage 25 g/a) was 5 (Growth inhibition rate; 91 to 100%) in each case. Also, the entries for the “Herbicidal effects Barnyard grass” value in data set [4] (chemical dosage 12.5 g/a) and in data set [4] (chemical dosage 25 g/a) were 0 (Growth inhibition rate; 0 to 10%) and 1 (Growth inhibition rate; 11 to 30%), respectively. For the same compound, the “Crop injury against transplanted rice” value in data set [5] (chemical dosage 12.5 g/a) and in data set [5] (chemical dosage 25 g/a) was 0 (Growth inhibition rate; 0 to 10%) each time.

For the compound `Cc1ccc(C(C)C)c(Oc2nnc(Cl)cc2O)c1` [Example 212], the “Herbicidal effects Cyperus serotinus” value in data set [1] (chemical dosage 12.5 g/a) and in data set [1] (chemical dosage 25 g/a) was 5 (Growth inhibition rate; 91 to 100%) each time. For the same compound, the “Herbicidal effects Scirpus joncoides” value in data set [2] (chemical dosage 12.5 g/a) and in data set [2] (chemical dosage 25 g/a) was 5 (Growth inhibition rate; 91 to 100%) throughout. Besides, the “Herbicidal effects Broad leaf” value in data set [3] (chemical dosage 12.5 g/a) and in data set [3] (chemical dosage 25 g/a) was 5 (Growth inhibition rate; 91 to 100%) each time. The “Herbicidal effects Barnyard grass” value in data set [4] (chemical dosage 12.5 g/a) is 1 (Growth inhibition rate; 11 to 30%); in data set [4] (chemical dosage 25 g/a), 2 (Growth inhibition rate; 31 to 50%). In addition, the “Crop injury against transplanted rice” value in data set [5] (chemical dosage 12.5 g/a) and in data set [5] (chemical dosage 25 g/a) was 0 (Growth inhibition rate; 0 to 10%) in each case.
